Active and inactive are the calls of the source.

Experimental findings from ChEMBL document CHEMBL1201862, “PubChem BioAssay data set” (2004) are described below.

In test [1] the target is Caspase-7 (Homo sapiens, UniProt P55210). Briefly: human caspase-7 inhibitors, dose response, selectivity assay for caspase-6 inhibitor project, biochemical, DEVD-R110 fluorescence, cherry-pick (AID 743295). It is filed as […].
For test [2], the target named is Caspase-6 (Homo sapiens, UniProt P55212). Briefly: human caspase-6 inhibitors, dose response, biochemical, VEID-R110 fluorescence, cherry-pick (AID 720632).
Sequence of Caspase-6 (P55212 24-179 limits assumed): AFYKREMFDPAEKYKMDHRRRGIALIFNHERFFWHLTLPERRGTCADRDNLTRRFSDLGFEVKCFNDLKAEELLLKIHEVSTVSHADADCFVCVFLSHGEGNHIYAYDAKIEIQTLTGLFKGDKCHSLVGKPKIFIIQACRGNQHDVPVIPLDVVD
Sequence of Caspase-6 (P55212 194-293 limits assumed): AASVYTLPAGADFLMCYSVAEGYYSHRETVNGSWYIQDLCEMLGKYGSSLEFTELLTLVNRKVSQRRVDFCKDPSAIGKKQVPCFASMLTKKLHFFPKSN
Test [3] can be described thus: Shn3 3'UTR reporter inhibitors, dose response, cell-based, Clone20 osteoblasts, firefly luciferase, cherry-picked (AID 624132).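 Further: firefly luciferase luminescence from reporter carrying the Shn3 3'UTR in osteoblasts.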 In kind it is functional.
Test [4] is described as follows: reduction of Shn3 3'UTR firefly luciferase signal, dose response, Schnurri-3 inhibitor project, cell-based, Clone20 osteoblasts, cherry-pick, set 2 (AID 720490).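 Further: actives lower the luminescence signal as inhibitors.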 It is filed as functional.
Test [5] is described as follows: HepG2 cell cytotoxicity, dose response, cytotoxicity control for Shn3 inhibitor project, CellTiter-Glo, cherry-picked (AID 624134). In kind it is functional, cell-based.
The nature of test [6]: control 3'UTR Renilla luciferase suppression, dose response, counter-screen for Shn3 inhibitor project, cell-based, Clone20-Shn3RL, cherry-picked (AID 624133). It is filed as functional.
Test [7] deals with 1-phosphatidylinositol 4,5-bisphosphate phosphodiesterase beta-3 (Homo sapiens, UniProt Q01970). In words: Fluorescence-based biochemical high throughput dose response assay to identify inhibitors of phospholipase C isozymes (PLC-B3).
Test [8] concerns the target ORF 73 (Human herpesvirus 8, UniProt O40947). Briefly: inhibitors of C-LANA binding to LBS DNA, dose response, biochemical, fluorescence polarization, cherry-picked samples (AID 504725).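 Further: fluorescence polarization of a labeled DNA duplex reporting LANA DNA binding; potency is for inhibitors that block LANA binding to the DNA.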 Set-up: species or system Human gammaherpesvirus 8.
Test [9] deals with Intestinal-type alkaline phosphatase (Homo sapiens, UniProt P09923). Briefly: inhibition of human intestinal alkaline phosphatase – biochemical, dose response (AID 488876). It is filed as functional.
Sequence of Intestinal-type alkaline phosphatase (Homo sapiens, UniProt P09923) (P09923 whole entry): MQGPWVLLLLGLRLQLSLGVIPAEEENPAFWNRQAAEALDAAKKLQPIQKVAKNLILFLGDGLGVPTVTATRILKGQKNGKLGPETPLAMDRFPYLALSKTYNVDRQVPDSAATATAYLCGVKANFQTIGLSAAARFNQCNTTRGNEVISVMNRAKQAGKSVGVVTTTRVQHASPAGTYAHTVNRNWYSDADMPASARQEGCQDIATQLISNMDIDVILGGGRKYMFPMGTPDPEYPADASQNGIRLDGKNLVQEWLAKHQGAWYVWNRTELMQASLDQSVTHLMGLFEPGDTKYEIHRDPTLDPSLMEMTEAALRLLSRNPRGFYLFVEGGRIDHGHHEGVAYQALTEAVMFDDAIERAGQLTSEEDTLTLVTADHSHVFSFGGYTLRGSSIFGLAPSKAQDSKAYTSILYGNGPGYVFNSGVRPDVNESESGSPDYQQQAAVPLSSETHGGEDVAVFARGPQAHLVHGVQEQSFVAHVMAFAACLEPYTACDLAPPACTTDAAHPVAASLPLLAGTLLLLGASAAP
Test [10] addresses Histone-lysine N-methyltransferase NSD2 (Homo sapiens, UniProt O96028). In kind it is biochemical.
Test [11] addresses Induced myeloid leukemia cell differentiation protein Mcl-1 (Homo sapiens, UniProt Q07820). It is filed as functional.
The target in test [12] is 1-phosphatidylinositol 4,5-bisphosphate phosphodiesterase gamma-1 (Homo sapiens, UniProt P19174). Briefly: Counterscreen for inhibitors of phospholipase C isozymes (PLC-B3): Fluorescence-based biochemical high throughput dose response assay to identify inhibitors of phospholipase C isozymes (PLC-gamma1).
Sequence of 1-phosphatidylinositol 4,5-bisphosphate phosphodiesterase gamma-1 (P19174 whole entry): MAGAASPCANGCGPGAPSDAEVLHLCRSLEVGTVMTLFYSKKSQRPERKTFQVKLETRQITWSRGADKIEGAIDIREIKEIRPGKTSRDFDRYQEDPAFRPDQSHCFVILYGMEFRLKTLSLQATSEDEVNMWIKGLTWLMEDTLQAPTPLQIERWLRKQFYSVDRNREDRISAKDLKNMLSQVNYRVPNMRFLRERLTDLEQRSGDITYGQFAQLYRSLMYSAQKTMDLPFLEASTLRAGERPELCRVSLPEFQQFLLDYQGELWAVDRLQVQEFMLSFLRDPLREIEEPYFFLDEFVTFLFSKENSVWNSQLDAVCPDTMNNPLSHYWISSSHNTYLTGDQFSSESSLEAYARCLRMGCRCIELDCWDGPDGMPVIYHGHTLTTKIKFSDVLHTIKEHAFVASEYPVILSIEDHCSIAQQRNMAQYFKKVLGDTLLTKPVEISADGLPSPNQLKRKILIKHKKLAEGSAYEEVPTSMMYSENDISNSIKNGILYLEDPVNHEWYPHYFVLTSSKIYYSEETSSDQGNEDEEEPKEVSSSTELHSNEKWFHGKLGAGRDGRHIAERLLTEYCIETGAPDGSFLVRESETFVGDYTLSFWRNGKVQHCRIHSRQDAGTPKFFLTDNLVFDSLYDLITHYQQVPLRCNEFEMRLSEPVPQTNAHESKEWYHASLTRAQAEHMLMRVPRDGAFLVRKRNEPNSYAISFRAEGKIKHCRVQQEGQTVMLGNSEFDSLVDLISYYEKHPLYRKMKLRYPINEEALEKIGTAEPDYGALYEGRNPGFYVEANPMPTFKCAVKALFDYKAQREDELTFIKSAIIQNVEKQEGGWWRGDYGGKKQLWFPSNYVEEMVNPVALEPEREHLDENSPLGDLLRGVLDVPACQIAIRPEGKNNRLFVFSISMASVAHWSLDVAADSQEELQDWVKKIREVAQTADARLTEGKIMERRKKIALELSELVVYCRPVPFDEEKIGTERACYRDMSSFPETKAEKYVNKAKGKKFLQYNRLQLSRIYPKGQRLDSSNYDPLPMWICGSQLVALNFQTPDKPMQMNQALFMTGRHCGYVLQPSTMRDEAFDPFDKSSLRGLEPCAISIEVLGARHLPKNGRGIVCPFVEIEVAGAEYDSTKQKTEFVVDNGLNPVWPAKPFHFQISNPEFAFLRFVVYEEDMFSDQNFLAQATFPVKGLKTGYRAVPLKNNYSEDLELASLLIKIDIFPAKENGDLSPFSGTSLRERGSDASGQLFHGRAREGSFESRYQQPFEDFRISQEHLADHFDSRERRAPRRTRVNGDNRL
In test [13] the target is T1, Alkaline phosphatase, tissue-nonspecific isozyme (Homo sapiens, UniProt P05186).
T1 sequence (P05186 whole entry): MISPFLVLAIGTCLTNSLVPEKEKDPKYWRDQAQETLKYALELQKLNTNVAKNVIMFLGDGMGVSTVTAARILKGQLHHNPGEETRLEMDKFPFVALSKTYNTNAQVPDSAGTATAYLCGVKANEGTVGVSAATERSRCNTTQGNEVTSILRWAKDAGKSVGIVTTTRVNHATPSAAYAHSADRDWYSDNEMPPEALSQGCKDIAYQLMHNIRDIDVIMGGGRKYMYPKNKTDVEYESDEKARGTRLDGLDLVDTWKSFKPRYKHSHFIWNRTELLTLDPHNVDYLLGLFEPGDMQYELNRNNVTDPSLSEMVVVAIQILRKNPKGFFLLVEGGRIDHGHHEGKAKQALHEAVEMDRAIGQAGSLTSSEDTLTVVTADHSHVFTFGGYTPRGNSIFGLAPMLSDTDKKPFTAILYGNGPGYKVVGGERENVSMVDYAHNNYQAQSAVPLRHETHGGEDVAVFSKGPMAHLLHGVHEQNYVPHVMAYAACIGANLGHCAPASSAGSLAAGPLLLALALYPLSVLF
Briefly: TNAP enzyme inhibition by screening hits, dose response, selectivity assay for mouse IAP inhibitor project, biochemical, human TNAP, uHTS hits (AID 488906). In kind it is functional.

Test [14] has as its target Intestinal-type alkaline phosphatase (Mus musculus, UniProt P24822). In words: PubChem AID 488785. It is filed as functional.
The target of test [15] is T2, Apoptotic protease-activating factor 1 (Homo sapiens, UniProt O14727).
T2 sequence (O14727 whole entry): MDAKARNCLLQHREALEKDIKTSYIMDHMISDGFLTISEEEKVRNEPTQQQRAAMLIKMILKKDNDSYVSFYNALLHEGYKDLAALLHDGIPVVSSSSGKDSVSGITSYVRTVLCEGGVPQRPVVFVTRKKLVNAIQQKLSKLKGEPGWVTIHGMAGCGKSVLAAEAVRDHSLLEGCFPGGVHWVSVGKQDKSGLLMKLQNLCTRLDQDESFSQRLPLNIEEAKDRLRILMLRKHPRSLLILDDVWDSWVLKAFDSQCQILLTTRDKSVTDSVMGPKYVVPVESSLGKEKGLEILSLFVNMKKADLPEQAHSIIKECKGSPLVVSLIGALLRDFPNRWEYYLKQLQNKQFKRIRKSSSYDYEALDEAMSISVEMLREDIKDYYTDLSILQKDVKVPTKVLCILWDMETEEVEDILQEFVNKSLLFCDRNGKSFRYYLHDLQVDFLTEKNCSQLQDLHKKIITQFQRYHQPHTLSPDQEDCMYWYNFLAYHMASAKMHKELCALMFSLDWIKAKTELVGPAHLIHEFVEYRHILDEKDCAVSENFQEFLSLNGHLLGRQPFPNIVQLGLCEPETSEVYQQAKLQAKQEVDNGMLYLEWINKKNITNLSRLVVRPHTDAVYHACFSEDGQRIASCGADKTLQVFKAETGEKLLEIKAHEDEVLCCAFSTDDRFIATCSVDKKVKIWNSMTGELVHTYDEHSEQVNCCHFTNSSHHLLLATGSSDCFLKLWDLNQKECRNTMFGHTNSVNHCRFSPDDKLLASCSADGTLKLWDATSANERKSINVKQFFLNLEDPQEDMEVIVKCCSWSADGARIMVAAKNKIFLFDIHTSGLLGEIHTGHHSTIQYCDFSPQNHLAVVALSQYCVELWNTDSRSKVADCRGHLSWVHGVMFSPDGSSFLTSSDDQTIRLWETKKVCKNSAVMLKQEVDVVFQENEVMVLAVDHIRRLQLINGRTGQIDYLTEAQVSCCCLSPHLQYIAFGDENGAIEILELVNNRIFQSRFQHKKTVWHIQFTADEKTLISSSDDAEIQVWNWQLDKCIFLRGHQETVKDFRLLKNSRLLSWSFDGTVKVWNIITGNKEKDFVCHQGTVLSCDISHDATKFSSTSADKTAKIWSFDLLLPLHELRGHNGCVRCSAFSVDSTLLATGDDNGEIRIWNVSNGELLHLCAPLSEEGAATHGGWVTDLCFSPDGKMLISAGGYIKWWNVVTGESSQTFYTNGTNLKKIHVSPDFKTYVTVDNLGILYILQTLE
In kind it is functional.

In test [16] the target is T3, Replicative DNA helicase DnaB (Mycobacterium tuberculosis, UniProt P9WMR3).
T3 sequence (P9WMR3 whole entry): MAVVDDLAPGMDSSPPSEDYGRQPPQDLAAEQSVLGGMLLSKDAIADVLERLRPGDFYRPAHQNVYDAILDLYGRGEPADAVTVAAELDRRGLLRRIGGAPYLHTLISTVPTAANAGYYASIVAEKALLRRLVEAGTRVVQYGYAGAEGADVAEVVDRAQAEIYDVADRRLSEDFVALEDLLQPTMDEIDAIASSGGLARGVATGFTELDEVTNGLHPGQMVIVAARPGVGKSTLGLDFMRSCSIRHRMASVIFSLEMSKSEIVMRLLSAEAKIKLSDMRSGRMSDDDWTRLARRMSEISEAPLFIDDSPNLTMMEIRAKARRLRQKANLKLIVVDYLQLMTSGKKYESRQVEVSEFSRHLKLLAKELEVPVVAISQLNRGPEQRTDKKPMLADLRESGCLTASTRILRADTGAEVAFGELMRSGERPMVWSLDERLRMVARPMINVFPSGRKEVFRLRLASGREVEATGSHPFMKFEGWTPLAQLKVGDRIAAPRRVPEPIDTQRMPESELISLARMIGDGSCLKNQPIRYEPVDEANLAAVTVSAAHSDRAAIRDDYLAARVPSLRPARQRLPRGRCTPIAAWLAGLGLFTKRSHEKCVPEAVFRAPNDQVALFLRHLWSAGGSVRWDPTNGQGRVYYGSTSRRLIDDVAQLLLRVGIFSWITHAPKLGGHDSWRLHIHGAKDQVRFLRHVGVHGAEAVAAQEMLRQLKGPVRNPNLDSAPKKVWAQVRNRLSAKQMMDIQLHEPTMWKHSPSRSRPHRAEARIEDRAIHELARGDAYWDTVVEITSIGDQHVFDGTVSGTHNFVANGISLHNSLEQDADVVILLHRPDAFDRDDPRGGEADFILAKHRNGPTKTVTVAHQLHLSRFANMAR
Briefly: DnaB intein splicing inhibitors, dose response, biochemical, cell-free fluorescence (AID 449749). In kind it is functional.

Test [17] concerns the target Tyrosyl-DNA phosphodiesterase 2 (Homo sapiens, UniProt O95551). In words: human TDP2 enzyme inhibitors, dose response, biochemical, epi absorbance, IC50 (AID 743297).
The target in test [18] is T4, Protein RecA (Mycobacterium tuberculosis, UniProt P9WHJ3).
T4 sequence (P9WHJ3 whole entry): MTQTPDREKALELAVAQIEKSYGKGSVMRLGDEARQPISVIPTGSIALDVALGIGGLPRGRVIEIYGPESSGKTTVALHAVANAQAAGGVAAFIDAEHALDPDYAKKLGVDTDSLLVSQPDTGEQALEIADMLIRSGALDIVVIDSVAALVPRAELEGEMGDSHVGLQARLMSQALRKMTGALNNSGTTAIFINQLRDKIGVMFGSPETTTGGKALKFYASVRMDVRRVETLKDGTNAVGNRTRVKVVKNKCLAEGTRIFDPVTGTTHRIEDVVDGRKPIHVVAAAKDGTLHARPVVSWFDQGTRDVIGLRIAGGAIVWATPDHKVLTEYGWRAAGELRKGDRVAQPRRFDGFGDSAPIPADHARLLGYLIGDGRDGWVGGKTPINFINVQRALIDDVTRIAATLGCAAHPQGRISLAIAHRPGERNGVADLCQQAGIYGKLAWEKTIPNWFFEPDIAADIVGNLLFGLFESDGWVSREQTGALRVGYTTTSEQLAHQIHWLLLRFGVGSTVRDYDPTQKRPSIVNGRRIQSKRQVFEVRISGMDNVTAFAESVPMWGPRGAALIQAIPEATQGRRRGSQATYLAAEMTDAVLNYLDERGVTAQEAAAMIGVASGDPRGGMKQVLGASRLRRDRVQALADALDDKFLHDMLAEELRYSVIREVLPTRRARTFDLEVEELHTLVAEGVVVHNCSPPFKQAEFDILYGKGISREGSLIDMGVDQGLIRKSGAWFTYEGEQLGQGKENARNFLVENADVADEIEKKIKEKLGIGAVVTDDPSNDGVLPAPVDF
In words: Fluorescence Cell-Free Homogeneous Dose Retest to Identify Inhibitors of RecA-Intein Splicing Activity. [Related pubchem assays (depositor defined):AID2097, AID2223, AID489010, AID492950]. In kind it is functional.

The nature of test [19]: A375 melanoma cell cytotoxicity, dose response, counter-screen for MITF inhibitor project, CellTiter-Glo luminescence, dry powder, set 2 (AID 624489).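 Further: actives are compounds lowering A375 viability meaning general cytotoxicity.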 In kind it is functional, cell-based. As to conditions: A-375.
Test [20] is described as follows: T. cruzi growth inhibition in host cells, dose response, cell-based, plate reader, dry powder, set 2 (AID 652275). It is filed as functional.
A short description of test [21]: NIH/3T3 fibroblast cytotoxicity, dose response, cytotoxicity control, cell-based, plate reader, dry powder, set 2 (AID 652280). It is filed as functional. As to conditions: NIH3T3.
Test [22] is described as follows: YAP1 pathway inhibition via CTGF transcript levels, dose response, cell-based, DLD1 colon cancer, RT-qPCR, cherry-pick (AID 1053122). Particulars: Cancer cell lines. It is filed as functional.
The nature of test [23]: A549 cell cytotoxicity, dose response, cytotoxicity control, CellTiter-Glo luminescence, dry powder, set 3 (AID 743146). In kind it is functional, cell-based.
Test [24] in a line: HEK293 cell cytotoxicity, dose response, cytotoxicity control, ATP luminescence, dry powder, Set6 (AID 743142). In kind it is functional, cell-based.
Test [25] in a line: HepG2 cell cytotoxicity, dose response, cytotoxicity control, luminescence plate reader, powder samples, set 2 (AID 651860). It is filed as functional, cell-based.

Sequence of Histone-lysine N-methyltransferase NSD2 (O96028 whole entry): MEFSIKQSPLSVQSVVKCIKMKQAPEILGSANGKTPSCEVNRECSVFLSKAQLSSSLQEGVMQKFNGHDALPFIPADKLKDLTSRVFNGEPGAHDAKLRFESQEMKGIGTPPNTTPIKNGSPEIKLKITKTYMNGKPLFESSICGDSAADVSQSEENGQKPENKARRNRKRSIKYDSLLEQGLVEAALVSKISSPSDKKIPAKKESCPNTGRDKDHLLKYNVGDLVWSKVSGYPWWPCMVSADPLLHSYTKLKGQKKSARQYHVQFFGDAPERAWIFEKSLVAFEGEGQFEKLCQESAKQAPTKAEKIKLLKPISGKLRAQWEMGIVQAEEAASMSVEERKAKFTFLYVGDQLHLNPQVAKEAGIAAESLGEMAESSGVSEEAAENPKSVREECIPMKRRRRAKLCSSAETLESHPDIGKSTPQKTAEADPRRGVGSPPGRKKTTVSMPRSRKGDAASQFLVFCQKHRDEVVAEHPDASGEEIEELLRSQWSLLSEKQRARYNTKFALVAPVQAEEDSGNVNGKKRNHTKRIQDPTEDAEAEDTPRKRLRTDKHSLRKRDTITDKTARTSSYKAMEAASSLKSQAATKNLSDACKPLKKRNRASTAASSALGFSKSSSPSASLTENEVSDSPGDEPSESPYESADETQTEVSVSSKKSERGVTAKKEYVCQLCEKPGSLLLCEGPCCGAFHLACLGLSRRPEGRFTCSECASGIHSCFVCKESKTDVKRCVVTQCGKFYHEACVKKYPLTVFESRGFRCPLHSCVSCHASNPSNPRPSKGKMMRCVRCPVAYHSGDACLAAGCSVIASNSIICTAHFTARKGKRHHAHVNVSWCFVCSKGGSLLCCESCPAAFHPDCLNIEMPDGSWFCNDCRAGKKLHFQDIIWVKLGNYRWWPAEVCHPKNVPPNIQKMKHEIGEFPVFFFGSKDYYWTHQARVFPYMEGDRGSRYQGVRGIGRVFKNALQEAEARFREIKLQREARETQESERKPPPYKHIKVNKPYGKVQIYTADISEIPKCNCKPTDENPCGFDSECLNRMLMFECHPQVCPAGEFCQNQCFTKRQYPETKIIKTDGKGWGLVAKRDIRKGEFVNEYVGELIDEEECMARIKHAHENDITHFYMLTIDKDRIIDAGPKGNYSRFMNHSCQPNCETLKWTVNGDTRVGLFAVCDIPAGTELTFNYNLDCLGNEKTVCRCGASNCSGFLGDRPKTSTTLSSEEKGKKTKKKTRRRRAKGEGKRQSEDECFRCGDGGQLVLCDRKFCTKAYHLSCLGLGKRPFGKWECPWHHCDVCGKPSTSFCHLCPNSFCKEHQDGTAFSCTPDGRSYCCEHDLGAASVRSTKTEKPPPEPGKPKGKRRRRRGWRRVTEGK
Sequence of Tyrosyl-DNA phosphodiesterase 2 (O95551 whole entry): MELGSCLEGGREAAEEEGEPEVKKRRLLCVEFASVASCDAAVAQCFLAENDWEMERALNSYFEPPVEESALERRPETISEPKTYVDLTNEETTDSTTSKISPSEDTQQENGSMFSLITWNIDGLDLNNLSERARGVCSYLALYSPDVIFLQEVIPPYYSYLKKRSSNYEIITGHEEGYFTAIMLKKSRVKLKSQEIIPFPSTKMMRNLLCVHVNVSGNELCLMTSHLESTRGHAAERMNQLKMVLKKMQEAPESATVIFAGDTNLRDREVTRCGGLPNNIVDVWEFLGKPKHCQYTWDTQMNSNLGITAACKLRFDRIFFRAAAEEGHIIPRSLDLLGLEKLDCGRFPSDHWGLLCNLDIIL
Sequence of Caspase-7 (P55210 24-198 limits assumed): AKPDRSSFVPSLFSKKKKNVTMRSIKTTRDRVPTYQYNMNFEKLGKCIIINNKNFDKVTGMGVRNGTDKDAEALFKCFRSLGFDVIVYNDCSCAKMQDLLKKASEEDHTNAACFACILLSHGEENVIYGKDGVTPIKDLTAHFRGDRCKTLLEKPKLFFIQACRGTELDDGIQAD
Sequence of Caspase-7 (P55210 207-303 limits assumed): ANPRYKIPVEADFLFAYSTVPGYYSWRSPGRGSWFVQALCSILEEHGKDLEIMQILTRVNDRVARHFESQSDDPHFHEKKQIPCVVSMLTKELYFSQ
Sequence of Induced myeloid leukemia cell differentiation protein Mcl-1 (Q07820 whole entry): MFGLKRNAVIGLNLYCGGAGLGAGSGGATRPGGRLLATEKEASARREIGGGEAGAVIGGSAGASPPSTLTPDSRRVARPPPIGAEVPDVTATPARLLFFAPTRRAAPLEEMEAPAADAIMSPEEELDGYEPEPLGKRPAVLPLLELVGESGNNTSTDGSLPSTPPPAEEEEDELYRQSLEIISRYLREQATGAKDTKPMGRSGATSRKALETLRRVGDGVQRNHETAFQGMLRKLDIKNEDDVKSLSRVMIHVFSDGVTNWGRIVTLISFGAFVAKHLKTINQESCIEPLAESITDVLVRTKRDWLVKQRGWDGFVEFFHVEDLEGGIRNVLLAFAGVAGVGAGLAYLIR
Sequence of Intestinal-type alkaline phosphatase (Mus musculus, UniProt P24822) (P24822 whole entry): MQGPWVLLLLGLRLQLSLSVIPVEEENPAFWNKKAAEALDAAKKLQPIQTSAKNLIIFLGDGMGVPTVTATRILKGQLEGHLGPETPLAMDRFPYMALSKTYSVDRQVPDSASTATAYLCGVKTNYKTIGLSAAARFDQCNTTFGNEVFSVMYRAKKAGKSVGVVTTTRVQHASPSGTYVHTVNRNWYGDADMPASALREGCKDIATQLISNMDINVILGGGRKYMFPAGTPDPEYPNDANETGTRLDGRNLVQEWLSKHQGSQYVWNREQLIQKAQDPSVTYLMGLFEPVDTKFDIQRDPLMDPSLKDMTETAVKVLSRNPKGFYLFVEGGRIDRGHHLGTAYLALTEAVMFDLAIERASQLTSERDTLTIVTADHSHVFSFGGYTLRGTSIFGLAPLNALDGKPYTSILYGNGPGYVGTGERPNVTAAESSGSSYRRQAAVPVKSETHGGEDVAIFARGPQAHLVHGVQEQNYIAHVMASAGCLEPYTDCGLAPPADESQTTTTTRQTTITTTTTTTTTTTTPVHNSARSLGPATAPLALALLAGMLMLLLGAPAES

With `O=C(O)CCc1ccc(-c2ccc(Br)cc2)n1CC(=O)O`, the AC50 in [1] is > 70 µM (inactive); in test [2] it was 3.5 µM (active).

As for `CCn1c(CNC(=O)c2cc(OC)c(OC)c(OC)c2)cc2cc(C)ccc21`, the AC50 was 2.52 µM (active) in [3], 3.79 µM (active) in test [4], > 70 µM (inactive) in test [5] and 13.4 µM (active) in test [6].

With `O=C(O)CCCN1C(=O)/C(=C/C=C/c2ccco2)SC1=S`, the IC50 was > 122 µM (inactive) in [7]; > 100 µM (inactive) in test [9]; 19.3 µM (not active) in test [11]; > 122 µM (inactive) in [12]; 39.1 µM (active) in test [13]; 1.4 µM (active) in test [14]. Moreover, the AC50 in [8] was 175 µM (active); in test [10], 2.42 µM (active).

In the case of `Cc1ccc(C(C[N+](=O)[O-])c2c(C)[nH]n(-c3ccccc3)c2=O)cc1` (stereo not given), the half-inhibitory concentration (IC50) in test [15] was 24.1 µM (active); in [17], 24.2 µM (inactive). Also, the AC50 in test [16] is 3.52 µM (active). Besides, the EC50 in [18] was 3.16 µM (active).

Consider `C=CCNC1=C(NCCCN2CCOCC2)C(=O)c2ccccc2C1=O`, for which the AC50 in [19] was > 70 µM (inactive).

Regarding `CC(C)(O)C#Cc1cccc(-c2nc(C(=O)NCc3ccc4c(c3)OCO4)cc3c2[C@@H](CCO)N([S+]([O-])C(C)(C)C)C3)c1` (stereo not given in full), the AC50 in [20] is 3.93 µM (active); in test [21], 12.1 µM (active).

As for `C[C@@H]1CN([C@H](C)CO)S(=O)(=O)c2ccc(C#Cc3cccc(F)c3)cc2O[C@@H]1CN(C)S(=O)(=O)c1cn(C)cn1`, the AC50 in test [22] was 3.47 µM (active).

As to `O=C(CCNC(=O)c1ccc(Cl)cc1)N[C@@H]1CCCc2ccccc21`, the AC50 is > 52 µM (inactive) in test [23] and 4.12 µM (active) in test [24].

Consider `O=C(O)[C@H]1CCCC[C@H]1C(=O)NC(CN1C(=O)c2ccccc2C1=O)c1ccccc1` (stereo not given in full), for which the AC50 in test [25] was > 52 µM (inactive).
